Assay results published in PubChem BioAssay AID1963439 (Molecular Pharmacology Branch, DTP, NCI, 2024).

System: NCI-H196 complex spheroids with HUVEC/MSC, growth % T/C
Assay: Anticancer human tumor NCI-H196 cell line growth inhibition [Asc];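 note: spheroids exposed to compound for 7 days before measurement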;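 for viability, T/C: 100% = DMSO vehicle control wells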
Conditions: for IC50: curve of first compound; for viability, T/C: stronger effect = lower value
Summary of the method: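 Tumor cells were grown as complex spheroids with human endothelial cells (HUVEC) and human mesenchymal stem cells as stroma. Agents were tested alone and in combination, in half-log steps down from the clinical Cmax, or from 10 microM where Cmax was unknown.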

[1] = second compound 0.1 µM, first compound 0.00316 µM
[2] = second compound 0.1 µM, first compound 0.01 µM
[3] = second compound 0.1 µM, first compound 0.0316 µM
[4] = second compound 0.1 µM, first compound 0.1 µM
[5] = second compound 0.316 µM, first compound 0.00316 µM
[6] = second compound 0.316 µM, first compound 0.01 µM
[7] = second compound 0.316 µM, first compound 0.0316 µM
[8] = second compound 0.316 µM, first compound 0.1 µM
[9] = second compound 1 µM, first compound 0.00316 µM
[10] = second compound 1 µM, first compound 0.01 µM
[11] = second compound 1 µM, first compound 0.0316 µM
[12] = second compound 1 µM, first compound 0.1 µM
[13] = second compound 3.16 µM, first compound 0.00316 µM
[14] = second compound 3.16 µM, first compound 0.01 µM
[15] = second compound 3.16 µM, first compound 0.0316 µM
[16] = second compound 3.16 µM, first compound 0.1 µM
[17] = second compound 10 µM, first compound 0.00316 µM
[18] = second compound 10 µM, first compound 0.01 µM
[19] = second compound 10 µM, first compound 0.0316 µM
[20] = second compound 10 µM, first compound 0.1 µM

COc1c(OCCCN2CCOCC2)ccc2c3n(c(=NC(=O)c4cnc(N)nc4)nc12)CCN3 + Cc1c(S(C)(=O)=O)c(-c2cc(F)cc(N3CCN(c4ccc(NS(=O)(=O)c5ccc(NC(CCN6CCC(C(=O)OCCCP(=O)(O)O)CC6)CSc6ccccc6)c(S(=O)(=O)C(F)(F)F)c5)cc4)CC3)c2)c(-c2ccc(Cl)cc2)n1C(C)C
IC50 (second compound 0.1 µM): > 1000 nM
IC50 (second compound 0.316 µM): > 1000 nM
IC50 (second compound 1 µM): 286 nM
IC50 (second compound 3.16 µM): 225 nM
IC50 (second compound 10 µM): 132 nM
viability, T/C [1]: 96.6%
viability, T/C [2]: 88.3%
viability, T/C [3]: 76.4%
viability, T/C [4]: 77.5%
viability, T/C (second compound 0.1 µM, first compound 0.316 µM): 59.7%
viability, T/C (second compound 0.1 µM, first compound 1 µM): 50.8%
viability, T/C [5]: 90.6%
viability, T/C [6]: 86.8%
viability, T/C [7]: 82.3%
viability, T/C [8]: 62.7%
viability, T/C (second compound 0.316 µM, first compound 0.316 µM): 57.9%
viability, T/C (second compound 0.316 µM, first compound 1 µM): 50.7%
viability, T/C [9]: 88.8%
viability, T/C [10]: 86.5%
viability, T/C [11]: 74.6%
viability, T/C [12]: 60.5%
viability, T/C (second compound 1 µM, first compound 0.316 µM): 49.3%
viability, T/C (second compound 1 µM, first compound 1 µM): 43.9%
viability, T/C [13]: 80%
viability, T/C [14]: 88.7%
viability, T/C [15]: 72.3%
viability, T/C [16]: 62.8%
viability, T/C (second compound 3.16 µM, first compound 0.316 µM): 44.8%
viability, T/C (second compound 3.16 µM, first compound 1 µM): 37.4%
viability, T/C [17]: 74.2%
viability, T/C [18]: 80.1%
viability, T/C [19]: 65.7%
viability, T/C [20]: 52.6%
viability, T/C (second compound 10 µM, first compound 0.316 µM): 41.5%
viability, T/C (second compound 10 µM, first compound 1 µM): 32.3%

NC(=O)C(=Cn1cnc(-c2cc(C(F)(F)F)cc(C(F)(F)F)c2)n1)c1cncnc1 + Cc1c(S(C)(=O)=O)c(-c2cc(F)cc(N3CCN(c4ccc(NS(=O)(=O)c5ccc(NC(CCN6CCC(C(=O)OCCCP(=O)(O)O)CC6)CSc6ccccc6)c(S(=O)(=O)C(F)(F)F)c5)cc4)CC3)c2)c(-c2ccc(Cl)cc2)n1C(C)C
IC50 (second compound 0.1 µM): 19.3 nM
IC50 (second compound 0.316 µM): 23.3 nM
IC50 (second compound 1 µM): 21.3 nM
IC50 (second compound 3.16 µM): 19.8 nM
IC50 (second compound 10 µM): 14.7 nM
viability, T/C (second compound 0.1 µM, first compound 0.000949 µM): 101%
viability, T/C (second compound 0.1 µM, first compound 0.003 µM): 89.2%
viability, T/C (second compound 0.1 µM, first compound 0.00949 µM): 72.1%
viability, T/C (second compound 0.1 µM, first compound 0.03 µM): 38.7%
viability, T/C (second compound 0.1 µM, first compound 0.0949 µM): 4.69%
viability, T/C (second compound 0.1 µM, first compound 0.3 µM): 1.47%
viability, T/C (second compound 0.316 µM, first compound 0.000949 µM): 95.5%
viability, T/C (second compound 0.316 µM, first compound 0.003 µM): 89%
viability, T/C (second compound 0.316 µM, first compound 0.00949 µM): 78.9%
viability, T/C (second compound 0.316 µM, first compound 0.03 µM): 43.4%
viability, T/C (second compound 0.316 µM, first compound 0.0949 µM): 3.08%
viability, T/C (second compound 0.316 µM, first compound 0.3 µM): 1.16%
viability, T/C (second compound 1 µM, first compound 0.000949 µM): 91.2%
viability, T/C (second compound 1 µM, first compound 0.003 µM): 83.5%
viability, T/C (second compound 1 µM, first compound 0.00949 µM): 72.3%
viability, T/C (second compound 1 µM, first compound 0.03 µM): 42.8%
viability, T/C (second compound 1 µM, first compound 0.0949 µM): 2.35%
viability, T/C (second compound 1 µM, first compound 0.3 µM): 1.29%
viability, T/C (second compound 3.16 µM, first compound 0.000949 µM): 78%
viability, T/C (second compound 3.16 µM, first compound 0.003 µM): 78.5%
viability, T/C (second compound 3.16 µM, first compound 0.00949 µM): 64.1%
viability, T/C (second compound 3.16 µM, first compound 0.03 µM): 42.5%
viability, T/C (second compound 3.16 µM, first compound 0.0949 µM): 2.09%
viability, T/C (second compound 3.16 µM, first compound 0.3 µM): 1.75%
viability, T/C (second compound 10 µM, first compound 0.000949 µM): 76.4%
viability, T/C (second compound 10 µM, first compound 0.003 µM): 74.3%
viability, T/C (second compound 10 µM, first compound 0.00949 µM): 59.6%
viability, T/C (second compound 10 µM, first compound 0.03 µM): 33.5%
viability, T/C (second compound 10 µM, first compound 0.0949 µM): 2.89%
viability, T/C (second compound 10 µM, first compound 0.3 µM): 1.28%

NC1CCC(NC2CC2c2ccccc2)CC1 (stereo not given) + Cc1c(S(C)(=O)=O)c(-c2cc(F)cc(N3CCN(c4ccc(NS(=O)(=O)c5ccc(NC(CCN6CCC(C(=O)OCCCP(=O)(O)O)CC6)CSc6ccccc6)c(S(=O)(=O)C(F)(F)F)c5)cc4)CC3)c2)c(-c2ccc(Cl)cc2)n1C(C)C
IC50 (second compound 0.1 µM): > 100 nM
IC50 (second compound 0.316 µM): > 100 nM
IC50 (second compound 1 µM): > 100 nM
IC50 (second compound 3.16 µM): > 100 nM
IC50 (second compound 10 µM): > 100 nM
viability, T/C (second compound 0.1 µM, first compound 0.000316 µM): 91.7%
viability, T/C (second compound 0.1 µM, first compound 0.001 µM): 100%
viability, T/C [1]: 84.5%
viability, T/C [2]: 93.7%
viability, T/C [3]: 93.1%
viability, T/C [4]: 85.7%
viability, T/C (second compound 0.316 µM, first compound 0.000316 µM): 91.8%
viability, T/C (second compound 0.316 µM, first compound 0.001 µM): 88.7%
viability, T/C [5]: 97%
viability, T/C [6]: 96.7%
viability, T/C [7]: 97.5%
viability, T/C [8]: 91.6%
viability, T/C (second compound 1 µM, first compound 0.000316 µM): 89.1%
viability, T/C (second compound 1 µM, first compound 0.001 µM): 88.7%
viability, T/C [9]: 89.8%
viability, T/C [10]: 85.1%
viability, T/C [11]: 87.5%
viability, T/C [12]: 80%
viability, T/C (second compound 3.16 µM, first compound 0.000316 µM): 79.4%
viability, T/C (second compound 3.16 µM, first compound 0.001 µM): 86.6%
viability, T/C [13]: 79.2%
viability, T/C [14]: 75.9%
viability, T/C [15]: 78%
viability, T/C [16]: 76%
viability, T/C (second compound 10 µM, first compound 0.000316 µM): 69.7%
viability, T/C (second compound 10 µM, first compound 0.001 µM): 73.5%
viability, T/C [17]: 69.3%
viability, T/C [18]: 74%
viability, T/C [19]: 76.6%
viability, T/C [20]: 71.1%
